Experimental data taken from patent US20030104487A1, “Neuropeptide receptor and uses thereof” (priority 2001, published 2003).

Experiments:
EBI2 [1] = target: T1, EBI2 (Homo sapiens, UniProt P32249); test: Response of EBI2 to CRF-family neuropeptides (test not specified); conditions: general statement, no test named
EBI2 [2] = target: T1, EBI2; test: β-Arrestin assay (GFP-β-arrestin clustering/internalisation); format: cell-based; design: expressed in transfected cells; host or cells: HEK 293; conditions: HEK 293 cells transiently expressing EBI2 and GFP-β-arrestin; ligand ~500 nM, 30 minutes; confocal microscopy, FIG. 2
Description: General principle of the assay: Agonist binding to the GPCR activates G-proteins and ultimately results in second messenger cascades to elicit a physiological response. In most cases receptors occupied by agonists undergo rapid phosphorylation by GPCR Kinases (GRKs). This in turn allows β-arrestin to bind to the GPCR preventing any further interaction between the GPCR and G-protein. Internalisation of the GPCR via clathrin coated pits follows as a result of arrestin-clathrin interactions (Krupnick, J. G. and Benovic, J. L. (1998) Annual Review of Pharmacological Toxicology, 38, 289-319). By employing fusion constructs of green fluorescent protein (GFP)-β arrestin, this receptor desensitisation can be visualised using confocal microscopy. In the absence of receptor activation in a transfected cell line, fluorescence associated with the β-arrestin-GFP is evenly distributed throughout the cytoplasm. Upon receptor activation by an agonist, cytosolic β-arrestin-GFP translocates to the cell surface reflecting the interaction with the activated receptor (Evans et al. 2001). […]
The receptor EBI2 and GFP-β-arrestin mammalian expression constructs were transiently transfected in to HEK 293 cells. […] The cells were then analysed using both confocal microscopy and the Cellomics ArrayScanII methodologies in order to identify internalisation of the ligand receptor GFP-β-arrestin complex. […]

EBI2 [3] = target: T1, EBI2; test: Functional assay measuring intracellular calcium mobilisation (FLIPR); format: cell-based; conditions: EBI2-expressing cells compared to mock-transfected cells; FIG. 1
Protocol: 5×10^6 cells of a suitable host cell line, chosen to express a low number of endogenous receptors (e.g. HEK293 or CHO-K1) and engineered to stably express certain Gα proteins (e.g. mouse Gα15 (Wilkie, T. M. et al (1991) Proc. Natl. Acad. Sci. 88, 10049-10053), a chimeric Gqi5/Gqo5 α-subunit, or human Gα16 (Amatruda, TT 3rd et al (1991) Proc. Natl. Acad. Sci. 88, 5587-5591)), were transiently transfected with 7.5 μg of cDNA encoding EBI2 in a suitable mammalian cell expression vector, or vector alone, using Lipofectamine Plus® reagent (Gibco BRL) as per the manufacturer's protocol. […]
Fluorescence Imaging Plate Reader (FLIPR®) technology was employed as a means to detect activation of EBI2 by various potential GPCR agonists.
Cells were transfected as described in Example 3. […] The FLIPR® processing involved reading the fluorescence for all samples for 2 minutes; during this time the fluorescence baseline was determined […]. The desired amount of compounds (i.e. potential GPCR agonists) was then automatically transferred to the wells and the fluorescence was continuously monitored for the remainder of the time. […]
Compounds capable of acting as agonists for the receptor were identified by them causing a transient rise in fluorescence, and therefore in intracellular calcium, in the cells.

T1 sequence (P32249 whole entry): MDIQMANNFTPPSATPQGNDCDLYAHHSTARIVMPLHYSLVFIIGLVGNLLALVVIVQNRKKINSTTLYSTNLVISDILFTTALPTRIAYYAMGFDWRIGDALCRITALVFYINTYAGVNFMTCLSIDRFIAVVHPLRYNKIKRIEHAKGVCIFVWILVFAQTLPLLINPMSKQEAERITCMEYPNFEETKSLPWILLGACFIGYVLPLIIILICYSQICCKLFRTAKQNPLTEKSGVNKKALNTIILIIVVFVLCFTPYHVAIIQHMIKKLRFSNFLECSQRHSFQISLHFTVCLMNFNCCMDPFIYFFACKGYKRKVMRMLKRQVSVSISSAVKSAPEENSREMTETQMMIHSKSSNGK

| Compound | receptor responds to the peptide (EBI2 [1]) | clustering of GFP-β-arrestin complex on the cell surface (EBI2 [2]) | fluorescence change over time (transient rise in intracellular calcium) (EBI2 [3]) |
| --- | --- | --- | --- |
| CC[C@H](C)[C@H](NC(=O)[C@@H](NC(=O)[C@H](CC(=O)O)NC(=O)[C@H](CC(C)C)NC(=O)[C@H](CC(C)C)NC(=O)[C@H](CC(C)C)NC(=O)[C@H](CCCNC(=N)N)NC(=O)[C@H](CC(N)=O)NC(=O)[C@H](CC(N)=O)NC(=O)[C@H](C)NC(=O)[C@H](C)NC(=O)[C@H](CCC(N)=O)NC(=O)[C@H](CCC(N)=O)NC(=O)[C@H](CCCCN)NC(=O)[C@H](CCC(=O)O)NC(=O)[C@H](CCCCN)NC(=O)[C@H](CCC(=O)O)NC(=O)[C@H](CCC(N)=O)NC(=O)[C@H](CCCCN)NC(=O)[C@H](CCC(=O)O)NC(=O)[C@@H](NC(=O)[C@H](CCC(=O)O)NC(=O)[C@@H](NC(=O)[C@H](CCSC)NC(=O)[C@H](CCCCN)NC(=O)[C@H](CCCNC(=N)N)NC(=O)[C@H](CC(C)C)NC(=O)[C@H](CC(C)C)NC(=O)[C@H](CCC(=O)O)NC(=O)[C@H](CC(C)C)NC(=O)[C@H](CO)NC(=O)[C@H](CC(C)C)NC(=O)[C@H](CC(=O)O)NC(=O)[C@@H](NC(=O)[C@H](CO)NC(=O)[C@@H](NC(=O)[C@@H]1CCCN1C(=O)[C@@H]1CCCN1C(=O)CNC(=O)[C@@H]1CCC(=O)N1)[C@@H](C)CC)[C@@H](C)CC)[C@@H](C)CC)[C@@H](C)CC)[C@@H](C)O)C(N)=O [sauvagine] | responds | – | – |
| urotensin I | responds | Clustering of the fluorescent GFP-β-arrestin complex is clearly observed | response of EBI2-expressing cells to urotensin I |
